The text below walks through data of ChEMBL document CHEMBL1201862, “PubChem BioAssay data set” (2004).

Activity calls are given as the source filed them.

In assay [1] the target is T1, High affinity choline transporter 1 (Homo sapiens, UniProt Q9GZV3).
T1 sequence (Q9GZV3 whole entry): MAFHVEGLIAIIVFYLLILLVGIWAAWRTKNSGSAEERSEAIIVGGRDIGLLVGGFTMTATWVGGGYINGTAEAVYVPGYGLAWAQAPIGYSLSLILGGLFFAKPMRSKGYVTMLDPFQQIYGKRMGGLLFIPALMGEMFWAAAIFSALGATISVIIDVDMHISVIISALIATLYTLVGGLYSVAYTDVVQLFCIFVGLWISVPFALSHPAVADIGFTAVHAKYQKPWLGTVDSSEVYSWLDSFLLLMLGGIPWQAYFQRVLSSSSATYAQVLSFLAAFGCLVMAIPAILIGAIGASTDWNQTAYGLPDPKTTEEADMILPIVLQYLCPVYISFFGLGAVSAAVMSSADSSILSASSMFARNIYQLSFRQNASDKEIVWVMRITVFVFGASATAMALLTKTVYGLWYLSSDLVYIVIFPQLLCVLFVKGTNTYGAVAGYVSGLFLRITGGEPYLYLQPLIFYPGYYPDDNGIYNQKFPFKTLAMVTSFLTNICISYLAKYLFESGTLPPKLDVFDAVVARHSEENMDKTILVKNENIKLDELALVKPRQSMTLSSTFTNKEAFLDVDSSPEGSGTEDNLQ
Put plainly: CHT inhibitors, dose response, cell-based, 10-point CRC, membrane potential dye (AID 588401).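 Note: membrane potential dye fluorescence of choline-evoked depolarization via CHT.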 In kind it is functional.

Assay [2] concerns the target T1, High affinity choline transporter 1. The assay can be described thus: CHT inhibitors, dose response, cell-based, 5-point CRC, membrane potential dye (AID 504840). The format is functional.
For assay [3], the target named is Delta-type opioid receptor (Homo sapiens, UniProt P41143). Put plainly: Counterscreen for agonists of heterodimerization of the mu 1 (OPRM1) and delta 1 (OPRD1) opioid receptors: Luminescence-based cell-based high throughput dose response assay to identify agonists of OPRD1 homodimerization. [Related pubchem assays (depositor defined):AID504326, AID504355, AID504692, AID504904, AID504905]. In kind it is functional. (A counterscreen serves to expose hits that act by an unwanted route or on another target.)
Sequence of Delta-type opioid receptor (P41143 whole entry): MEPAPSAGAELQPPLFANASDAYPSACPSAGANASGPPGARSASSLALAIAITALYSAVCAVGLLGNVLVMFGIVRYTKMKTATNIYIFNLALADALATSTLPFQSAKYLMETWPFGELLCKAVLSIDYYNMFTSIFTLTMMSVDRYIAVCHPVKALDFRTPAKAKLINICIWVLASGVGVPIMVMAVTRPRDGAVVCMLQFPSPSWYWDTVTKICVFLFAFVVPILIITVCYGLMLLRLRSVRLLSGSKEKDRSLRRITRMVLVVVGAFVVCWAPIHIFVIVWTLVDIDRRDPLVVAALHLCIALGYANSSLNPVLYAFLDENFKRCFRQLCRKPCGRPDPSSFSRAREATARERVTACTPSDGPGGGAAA

The target of assay [4] is Mu-type opioid receptor (Homo sapiens, UniProt P35372). The assay can be described thus: Counterscreen for agonists of heterodimerization of the mu 1 (OPRM1) and delta 1 (OPRD1) opioid receptors: Luminescence-based cell-based high throughput dose response assay to identify agonists of OPRM1 homodimerization. In kind it is functional.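 Note: U2OS cells expressing OPRM1 and beta-arrestin as split beta-galactosidase partners.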
Sequence of Mu-type opioid receptor (P35372 whole entry): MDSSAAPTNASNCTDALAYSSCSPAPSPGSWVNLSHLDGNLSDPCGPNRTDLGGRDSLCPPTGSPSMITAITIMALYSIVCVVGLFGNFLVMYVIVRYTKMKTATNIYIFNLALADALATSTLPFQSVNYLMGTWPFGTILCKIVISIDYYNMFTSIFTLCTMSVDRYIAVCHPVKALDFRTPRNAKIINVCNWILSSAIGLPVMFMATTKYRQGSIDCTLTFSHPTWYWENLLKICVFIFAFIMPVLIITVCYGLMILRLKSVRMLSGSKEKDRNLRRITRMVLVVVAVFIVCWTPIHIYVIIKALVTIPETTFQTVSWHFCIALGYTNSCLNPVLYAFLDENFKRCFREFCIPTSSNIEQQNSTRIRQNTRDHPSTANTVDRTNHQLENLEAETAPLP
Assay [5] addresses 5-hydroxytryptamine receptor 5A (Homo sapiens, UniProt P47898). Put plainly: Counterscreen for agonists of OPRM1-OPRD1 heterodimerization: luminescence-based cell-based high throughput dose response assay to identify agonists of 5-hydroxytryptamine (serotonin) 5A receptor (HTR5A). [Related pubchem assays (depositor defined):AID504326, AID504355, AID504692, AID504904, AID504905]. The format is functional.

Assay [6] concerns the target T2, Short transient receptor potential channel 4 (Mus musculus, UniProt Q9QUQ5).
T2 sequence (Q9QUQ5 whole entry): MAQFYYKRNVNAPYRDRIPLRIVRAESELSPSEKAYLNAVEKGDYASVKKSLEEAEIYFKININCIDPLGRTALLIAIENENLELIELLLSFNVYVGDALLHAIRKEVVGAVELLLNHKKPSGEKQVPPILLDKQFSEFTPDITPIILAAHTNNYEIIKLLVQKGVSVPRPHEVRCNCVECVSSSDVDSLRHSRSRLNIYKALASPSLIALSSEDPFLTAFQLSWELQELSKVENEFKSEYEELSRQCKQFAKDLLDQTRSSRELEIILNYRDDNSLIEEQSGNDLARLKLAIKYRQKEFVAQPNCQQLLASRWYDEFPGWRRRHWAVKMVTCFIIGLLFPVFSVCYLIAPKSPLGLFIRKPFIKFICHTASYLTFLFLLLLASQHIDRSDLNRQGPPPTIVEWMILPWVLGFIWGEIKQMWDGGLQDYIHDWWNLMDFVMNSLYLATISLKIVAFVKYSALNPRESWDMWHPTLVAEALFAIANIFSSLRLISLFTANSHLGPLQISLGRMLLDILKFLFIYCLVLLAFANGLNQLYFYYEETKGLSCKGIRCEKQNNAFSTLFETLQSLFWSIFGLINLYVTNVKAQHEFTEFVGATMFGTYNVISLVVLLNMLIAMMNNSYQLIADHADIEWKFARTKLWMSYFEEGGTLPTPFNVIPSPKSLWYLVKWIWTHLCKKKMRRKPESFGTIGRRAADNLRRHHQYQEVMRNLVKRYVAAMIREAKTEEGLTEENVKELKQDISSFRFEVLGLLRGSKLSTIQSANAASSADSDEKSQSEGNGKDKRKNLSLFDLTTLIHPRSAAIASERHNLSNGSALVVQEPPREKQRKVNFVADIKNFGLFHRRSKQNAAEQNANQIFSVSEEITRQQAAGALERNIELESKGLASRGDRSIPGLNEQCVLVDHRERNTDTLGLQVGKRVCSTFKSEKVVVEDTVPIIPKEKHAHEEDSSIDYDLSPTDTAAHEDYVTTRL
Put plainly: mouse TRPC4 channel activators, dose response, cell-based, HEK293 TRPC4/mu-opioid, Fluo-4 calcium (AID 434937). The format is functional.

For assay [7], the system named is Vero. Put plainly: Vero cell cytotoxicity, cytotoxicity control for flavivirus capping enzyme inhibitors (AID 588742). In kind it is functional. The note with it: Chlorocebus sabaeus.
Assay [8] concerns the target T3, Endoribonuclease toxin MazF (Escherichia coli K-12, UniProt P0AE70).
T3 sequence (P0AE70 whole entry): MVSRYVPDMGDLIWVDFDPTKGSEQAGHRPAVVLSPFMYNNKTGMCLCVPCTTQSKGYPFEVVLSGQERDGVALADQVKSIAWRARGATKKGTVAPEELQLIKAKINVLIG
Put plainly: MazF toxin RNase activators, dose response, biochemical, fluorescence, single-stranded RNA substrate, uHTS hits (AID 588481). The format is functional.

The target in assay [9] is T3, Endoribonuclease toxin MazF. Put plainly: fluorescent RNA oligo signal without MazF, dose response, counter-screen for MazEF activator project, biochemical, fluorescence, single-stranded RNase substrate (AID 588502). The format is functional.
Assay [10] deals with Escherichia coli. The assay can be described thus: microbe, parasite or virus in culture.
In assay [11] the test system is Escherichia coli. The assay can be described thus: microbe, parasite or virus in culture. The source holds these as a separate data set.
In assay [12] the target is Paired box protein Pax-8 (Homo sapiens, UniProt Q06710). Put plainly: inhibitors of PAX8-driven TPO luciferase reporter, dose response, RMG-I cells, cherry-pick (AID 687027).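 Note: luciferase reporter driven by Pax8 target thyroperoxidase promoter measured by SteadyGlo luminescence.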 The format is functional, cell-based. Background: Reporter assays use an easily measured gene product as a stand-in for the process of interest.
Sequence of Paired box protein Pax-8 (Q06710 whole entry): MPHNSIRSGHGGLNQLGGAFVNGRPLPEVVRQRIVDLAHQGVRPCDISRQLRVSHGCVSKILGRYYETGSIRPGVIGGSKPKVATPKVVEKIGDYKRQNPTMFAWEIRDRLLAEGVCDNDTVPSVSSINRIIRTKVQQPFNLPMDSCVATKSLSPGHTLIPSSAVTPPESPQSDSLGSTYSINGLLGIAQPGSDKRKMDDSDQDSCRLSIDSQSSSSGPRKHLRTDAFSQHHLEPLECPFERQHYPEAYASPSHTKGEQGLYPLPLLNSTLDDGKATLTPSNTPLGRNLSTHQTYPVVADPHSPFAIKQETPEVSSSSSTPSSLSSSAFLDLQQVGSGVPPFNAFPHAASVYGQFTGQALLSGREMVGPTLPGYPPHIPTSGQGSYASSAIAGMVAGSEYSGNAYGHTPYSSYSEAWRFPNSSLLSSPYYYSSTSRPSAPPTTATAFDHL
Assay [13] concerns HEK293. The assay can be described thus: cytotoxicity in HEK293T NF-kB-Luc cells, SAR follow-up, cytotoxicity control for NF-kB activator project, cell-based, resazurin fluorescence (AID 493251). The format is functional. The note with it: Homo sapiens. (In general: The colour change of resazurin is a common sign of viable cells or microbes.)
Assay [14] deals with ALK tyrosine kinase receptor (Homo sapiens, UniProt Q9UM73). In kind it is functional.
Sequence of ALK tyrosine kinase receptor (Q9UM73 whole entry): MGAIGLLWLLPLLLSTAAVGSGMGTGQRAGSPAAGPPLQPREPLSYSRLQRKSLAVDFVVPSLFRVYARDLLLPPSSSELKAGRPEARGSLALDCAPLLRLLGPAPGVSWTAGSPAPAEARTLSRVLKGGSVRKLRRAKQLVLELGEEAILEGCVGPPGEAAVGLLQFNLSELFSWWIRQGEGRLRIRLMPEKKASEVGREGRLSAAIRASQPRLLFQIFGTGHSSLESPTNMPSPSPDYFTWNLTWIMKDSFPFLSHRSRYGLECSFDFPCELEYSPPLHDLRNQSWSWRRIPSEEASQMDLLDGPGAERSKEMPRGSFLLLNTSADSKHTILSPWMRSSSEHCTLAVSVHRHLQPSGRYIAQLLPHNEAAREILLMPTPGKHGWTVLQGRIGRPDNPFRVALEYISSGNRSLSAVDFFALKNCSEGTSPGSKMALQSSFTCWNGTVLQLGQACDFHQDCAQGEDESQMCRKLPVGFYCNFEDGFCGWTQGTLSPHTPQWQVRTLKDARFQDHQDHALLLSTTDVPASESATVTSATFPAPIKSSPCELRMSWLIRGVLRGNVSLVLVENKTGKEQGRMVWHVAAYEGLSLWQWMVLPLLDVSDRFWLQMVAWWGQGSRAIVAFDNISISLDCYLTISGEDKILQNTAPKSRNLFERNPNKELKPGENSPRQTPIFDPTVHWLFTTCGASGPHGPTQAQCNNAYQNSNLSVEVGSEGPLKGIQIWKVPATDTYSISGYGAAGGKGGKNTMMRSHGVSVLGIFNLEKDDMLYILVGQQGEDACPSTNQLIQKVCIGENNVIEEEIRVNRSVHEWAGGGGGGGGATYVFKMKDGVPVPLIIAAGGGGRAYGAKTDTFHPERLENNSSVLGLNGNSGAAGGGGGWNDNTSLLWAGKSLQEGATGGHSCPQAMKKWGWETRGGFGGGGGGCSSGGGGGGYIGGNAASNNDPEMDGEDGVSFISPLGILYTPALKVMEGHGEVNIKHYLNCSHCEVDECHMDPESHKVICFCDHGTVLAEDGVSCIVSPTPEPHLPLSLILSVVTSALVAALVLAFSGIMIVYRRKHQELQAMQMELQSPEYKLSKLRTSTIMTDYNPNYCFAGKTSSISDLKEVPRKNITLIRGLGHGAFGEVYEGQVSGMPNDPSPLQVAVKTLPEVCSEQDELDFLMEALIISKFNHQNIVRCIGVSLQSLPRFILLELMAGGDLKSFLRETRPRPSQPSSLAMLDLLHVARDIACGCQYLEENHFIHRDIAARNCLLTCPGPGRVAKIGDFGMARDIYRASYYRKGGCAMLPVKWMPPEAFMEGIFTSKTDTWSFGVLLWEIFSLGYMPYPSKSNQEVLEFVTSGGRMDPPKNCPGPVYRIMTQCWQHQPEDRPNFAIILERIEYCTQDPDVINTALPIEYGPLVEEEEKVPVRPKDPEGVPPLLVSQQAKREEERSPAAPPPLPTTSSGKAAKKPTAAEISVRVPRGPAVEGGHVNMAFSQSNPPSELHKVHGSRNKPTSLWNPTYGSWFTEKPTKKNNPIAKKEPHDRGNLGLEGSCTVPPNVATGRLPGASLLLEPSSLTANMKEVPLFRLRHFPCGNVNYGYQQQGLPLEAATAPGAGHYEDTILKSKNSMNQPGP
In assay [15] the target is Cyclin-dependent kinase 19 (Homo sapiens, UniProt Q9BWU1). Put plainly: Navigating the Kinome. Panel member name: CDC2L6. In kind it is functional.
Sequence of Cyclin-dependent kinase 19 (Q9BWU1 whole entry): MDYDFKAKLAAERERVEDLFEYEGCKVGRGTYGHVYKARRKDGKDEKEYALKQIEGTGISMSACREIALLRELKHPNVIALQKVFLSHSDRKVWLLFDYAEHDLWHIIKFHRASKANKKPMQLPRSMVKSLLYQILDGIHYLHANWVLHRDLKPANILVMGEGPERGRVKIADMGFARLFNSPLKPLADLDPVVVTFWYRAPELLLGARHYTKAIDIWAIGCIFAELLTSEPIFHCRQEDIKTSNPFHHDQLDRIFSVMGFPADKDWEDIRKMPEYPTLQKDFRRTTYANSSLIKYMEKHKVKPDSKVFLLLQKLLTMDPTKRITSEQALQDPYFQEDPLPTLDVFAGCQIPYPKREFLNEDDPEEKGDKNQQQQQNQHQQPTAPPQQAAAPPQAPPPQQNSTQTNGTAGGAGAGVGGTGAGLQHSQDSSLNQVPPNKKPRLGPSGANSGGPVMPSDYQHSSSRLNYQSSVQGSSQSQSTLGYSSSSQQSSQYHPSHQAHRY

Sequence of 5-hydroxytryptamine receptor 5A (P47898 whole entry): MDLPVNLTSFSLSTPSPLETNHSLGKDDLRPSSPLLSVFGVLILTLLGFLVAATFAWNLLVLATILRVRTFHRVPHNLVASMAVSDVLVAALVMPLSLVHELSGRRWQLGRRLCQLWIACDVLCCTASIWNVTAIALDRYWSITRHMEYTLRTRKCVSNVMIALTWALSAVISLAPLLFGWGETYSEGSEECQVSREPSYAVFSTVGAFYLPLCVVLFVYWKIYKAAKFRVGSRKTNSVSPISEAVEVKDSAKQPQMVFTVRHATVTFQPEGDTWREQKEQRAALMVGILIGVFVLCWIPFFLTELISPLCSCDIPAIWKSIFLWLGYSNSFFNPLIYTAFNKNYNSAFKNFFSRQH

One may read the IC50 as the concentration at which inhibition is half-maximal. In the case of `N=C1CCCN1CC(=O)c1ccc(Br)cc1`, the IC50 in assay [1] was 1.06 µM (active); in assay [2] it was 6.07 µM (active).

Broadly, the EC50 is the concentration that produces a half-maximal response. On to `COc1ccc2c(Cl)c(-c3nnc(SCC(=O)c4ccccc4)n3C)sc2c1`, for which the EC50 in assay [3] was 26.5 µM (inactive); in assay [4], 10.3 µM (inactive); in assay [5], > 92.5 µM (inactive); in assay [6] it was 668 nM (active).

With `O=C(Nc1ccc(S(=O)(=O)NCC2CCCO2)cc1)c1ccc(Cl)cc1[N+](=O)[O-]` (centres undefined), the IC50 is 4.47 µM (active) in assay [1] and 7.39 µM (active) in [2].

As a reminder, the CC50 is the concentration at which the toxic effect on the cells reaches its halfway point. With `Cc1ccc(-c2cc(C(=O)NCc3ccco3)c3ccccc3n2)s1`, the CC50 in assay [7] is > 40 µM (active).

Consider `CCOC(=O)C1=C(C)N(CC(C)C)C(=O)/C1=C\c1cccs1`, for which the EC50 in [8] and in assay [9] was > 99 µM (inactive) in each case.

Take `CN1C2C=C(N(CCc3ccccc3)C(=O)c3ccc(Cl)cc3)CC1CC2` (centres undefined): the EC50 in [3] is > 92.5 µM (inactive); in [4] it was 67.3 µM (inactive); in assay [5], > 92.5 µM (inactive); in [6] it was 531 nM (active).

The AC50 is the concentration at which the activity in the assay is half-maximal. Consider `CC(C)n1ncc2c(C(=O)N3CCN(Cc4ccc(Br)s4)CC3)cc(C3CC3)nc21`, for which the AC50 in [10] is 76 µM (active).

Take `C[C@H]1c2cccc(O)c2C(=O)C2C(=O)C3(O)C(=O)C(C(N)=O)C(=O)[C@@H](N(C)C)[C@@H]3[C@@H](O)[C@@H]21` (some centres undefined): the AC50 in assay [10] is 0.882 µM (active); in [11], 12.3 µM (active).

In the case of `CC(C)=CCC/C(C)=C/CNC(=O)C[C@H]1C[C@H](C(=O)N2CCOCC2)[C@@]2(C)c3[nH]c4ccc(Cl)cc4c3CCN2C1=O`, the AC50 in assay [10] is 112 µM (active); in assay [12], 11.8 µM (active).

Turning to `CCNC(=O)CCc1nc(-c2ccc(OCC)cc2)no1`, the IC50 in assay [13] was > 80 µM (inactive).

Take `O=C1/C(=C/c2ccc3c(c2)OCO3)SC(=S)N1CCC(=O)N(CCO)c1ccccc1`: the EC50 in assay [8] was > 99 µM (inactive); in assay [9], 90.4 µM (inactive).

For the molecule `CC1CCCC(NC(=O)c2ccc(C/N=c3\c(N4CCCC4)c(O)c3=O)cc2)C1C` (centres undefined), the results for the IC50 in assay [1] and in assay [2] were 0.501 µM (active) and 0.851 µM (active), respectively.

As a reminder, the Ki is the equilibrium dissociation constant of an inhibitor or competing ligand from its target. With `CCOc1ccc(-c2nc3ccccn3c2-c2ccnc(Nc3cccc(CCN(C)C)c3)n2)cc1`, the values for the Ki in assay [14] and in assay [15] were 316 nM (active) and 6.31 µM (active), respectively.

For the molecule `COc1ccccc1/N=C/c1c(C)c(C#N)c2nc3ccccc3n2c1O`, the EC50 in [8] and in assay [9] was > 99 µM (inactive) each time.
